Converted amounts (≈) assume the structure as drawn. Like-named read-outs stand apart in the source and are kept apart here.
Assays:
[1] = test system: Escherichia coli ATCC 25922; assay: Minimum inhibitory concentration, broth micro-dilution (CLSI), E. coli; format: cell-based; conditions: Escherichia coli, ATCC25922, 22 h, 35° C., 22 hours
[2] = biological target: T1, SpsB (Staphylococcus aureus signal peptidase) (Staphylococcus aureus, UniProt P0A070); assay: cell-based; format: biochemical; conditions: SpsB IC50, whole-cell S. aureus (USA300 background, overexpressing SpsB) as SpsB source; fluorogenic peptide substrate, kinetic read 30 min
T1 construct: This assay uses a suspension of Staphylococcus aureus cells as a source of SpsB instead of recombinant SpsB protein; endogenous in cells; host or cells: S. aureus, USA300 background, overexpressing SpsB (whole-cell suspension from frozen pellets)
T1 sequence (P0A070 whole entry): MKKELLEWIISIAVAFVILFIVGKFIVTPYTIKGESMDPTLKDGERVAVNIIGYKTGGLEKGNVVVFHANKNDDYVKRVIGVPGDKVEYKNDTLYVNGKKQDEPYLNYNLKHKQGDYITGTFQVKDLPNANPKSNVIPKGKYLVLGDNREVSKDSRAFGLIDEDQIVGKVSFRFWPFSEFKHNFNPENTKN
Outline: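 Whole S. aureus cells (USA300, overexpressing SpsB) in PBS with MgCl2, CaCl2 and 0.1% Tween-80 served as enzyme source, mixed with 20 μM stock of (Dabcyl)βAla-KPAKAAE(Edans) substrate before use. Fluorescence (ex 340/em 490 nm) read kinetically over 30 min. IC50 from reaction rate versus 11-point inhibitor concentration.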

[3] = test system: Methicillin Resistant Staphylococcus aureus strain USA 300, NRS384; assay: Minimum inhibitory concentration, broth micro-dilution (CLSI), S. aureus; format: cell-based; conditions: Staphylococcus aureus, MRSA / NRS 384 / USA300, 22 h, 35° C., 22 hours
Outline: (§1)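 CLSI broth microdilution in cation-adjusted Mueller Hinton Broth with 0.002% Tween-80; inoculum final OD600 0.0005, 22 hours at 35° C. Ten 2-fold dilutions starting at 4 μg/mL (protocol 2) or 0.5 μg/mL (protocol 3).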

[4] = test system: Escherichia coli MC4100 harboring the IMP4213 (E. coli IMP); assay: microbe, parasite or virus in culture; format: cell-based; conditions: Escherichia coli, 22 h, read-out: MIC (μg/mL) E. coli IMP, E. coli MC4100 IMP4213, increased outer-membrane permeability; 35° C., 22 hours
Outline: as §1

[5] = E. coli ATCC 25922, read-out: MIC (μg/mL) E. coli
[6] = MRSA USA 300 NRS384, read-out: MIC (μg/mL) S. aureus
[7] = read-out: MIC (μg/mL) E. coli, E. coli ATCC 25922
[8] = read-out: MIC (μg/mL) S. aureus, MRSA USA 300 NRS384

| SMILES | MIC [1, 5] [µg/mL] | IC50 [2] [nM] | MIC [3, 6] [µg/mL] | MIC [4] [µg/mL] | MIC [1, 7] [µg/mL] | MIC [3, 8] [µg/mL] |
| --- | --- | --- | --- | --- | --- | --- |
| CCCCCCCCCCCC(=O)N[C@H](C(=O)N(C)[C@@H]1C(=O)N[C@@H](C)C(=O)N[C@H](C(=O)NCC#N)Cc2ccc(OCCN)c(c2)-c2cc1ccc2OCCN)[C@@H](C)O [Compound 256] | 16 (≈ 19.5 µM) | 0.8 | 0.19 (≈ 0.231 µM) | 0.094 (≈ 0.114 µM) | – | – |
| CCCCc1ccc(-c2ccc(C(=O)N[C@@H](CO)C(=O)N(C)[C@@H]3C(=O)N[C@@H](C)C(=O)N[C@H](C(=O)NCC#N)Cc4ccc(OCCN)c(c4)-c4cc3ccc4OCCN)cc2)cc1 [Compound 249] | 0.69 (≈ 0.801 µM) | 1.2 | 0.13 (≈ 0.151 µM) | 0.012 (≈ 0.0139 µM) | – | – |
| C[C@@H]1NC(=O)[C@@H](N(C)C(=O)[C@H](CCCCN)NC(=O)c2ccccc2-c2ccc(Cl)cc2)c2ccc(OCCN)c(c2)-c2cc(ccc2OCCN)C[C@@H](C(=O)NCC#N)NC1=O [Compound 114] | – | 6.1 | – | 2 (≈ 2.27 µM) | > 64 | 2 (≈ 2.27 µM) |
| CCCCc1ccc(NC(=O)CCC(=O)N[C@@H](CCN)C(=O)N(C)[C@@H]2C(=O)N[C@@H](C)C(=O)N[C@H](C(=O)NCC#N)Cc3ccc(OCCN)c(c3)-c3cc2ccc3OCCN)c(C)c1 [Compound 377] | 8 (≈ 9.06 µM) | 1 | 0.13 (≈ 0.147 µM) | 0.13 (≈ 0.147 µM) | – | – |
| CCCCCCCCc1ccc(C(=O)N[C@@H](CO)C(=O)N(C)[C@@H]2C(=O)N[C@@H](C)C(=O)N[C@H](C(=O)NCC#N)Cc3ccc(OCCN)c(c3)-c3cc2ccc3OCCN)c(C)c1 [Compound 235] | 1 (≈ 1.17 µM) | 0.98 | 0.094 (≈ 0.11 µM) | 0.012 (≈ 0.014 µM) | – | – |
| CCCCCCc1ccc(C(=O)N[C@@H](CCN)C(=O)N(C)[C@@H]2C(=O)N[C@@H](C)C(=O)N[C@H](C(=O)NCC#N)Cc3ccc(OCCN)c(c3)-c3cc2ccc3OCCN)c(C)c1 [Compound 197] | 0.31 (≈ 0.369 µM) | < 0.5 | 0.078 (≈ 0.0929 µM) | 0.011 (≈ 0.0131 µM) | – | – |
| CCCCCCCCc1ccc(C(=O)N[C@@H](CCN)C(=O)N(C)[C@@H]2C(=O)N[C@@H](C)C(=O)N[C@H](C(=O)NCC#N)Cc3ccc(OCCN)c(c3)-c3cc2ccc3OCCN)c(C(F)F)c1 [Compound 221] | 0.19 (≈ 0.21 µM) | 1.3 | 0.063 (≈ 0.0697 µM) | 0.023 (≈ 0.0254 µM) | – | – |
| CCCCCCCCCCNCCS(=O)(=O)N[C@@H](CCN)C(=O)N(C)[C@@H]1C(=O)N[C@@H](C)C(=O)N[C@H](C(=O)NCC#N)Cc2ccc(OCCN)c(c2)-c2cc1ccc2OCCN [Compound 350] | 4 (≈ 4.52 µM) | 1 | 0.016 (≈ 0.0181 µM) | 0.063 (≈ 0.0712 µM) | – | – |
| CCCCCCCCCCCC(=O)N[C@@H](CCO)C(=O)N(C)[C@@H]1C(=O)N[C@@H](C)C(=O)N[C@H](C(=O)NCC#N)Cc2ccc(OCCN)c(c2)-c2cc1ccc2OCCN [Compound 257] | 12 (≈ 14.6 µM) | 0.92 | 0.13 (≈ 0.158 µM) | 0.063 (≈ 0.0767 µM) | – | – |
| CCCCc1ccc(C(=O)N[C@@H](CCO)C(=O)N(C)[C@@H]2C(=O)N[C@@H](C)C(=O)N[C@H](C(=O)NCC#N)Cc3ccc(OCCN)c(c3)-c3cc2ccc3OCCN)c(C)c1 [Compound 258] | 64 (≈ 78.7 µM) | 2.8 | 1 (≈ 1.23 µM) | 0.19 (≈ 0.234 µM) | – | – |
| CCCCCCCCCC(=O)N[C@@H](CCSC)C(=O)N(C)[C@@H]1C(=O)N[C@@H](C)C(=O)N[C@H](C(=O)NCC#N)Cc2ccc(OCCN)c(c2)-c2cc1ccc2OCCN [Compound 254] | 48 (≈ 58.3 µM) | 1.6 | 0.5 (≈ 0.607 µM) | 0.5 (≈ 0.607 µM) | – | – |
| CCCCCCCc1ccc(C(=O)N[C@@H](CCN)C(=O)N(C)[C@@H]2C(=O)N[C@@H](C)C(=O)N[C@H](C(=O)NCC#N)Cc3ccc(OCCN)c(c3)-c3cc2ccc3OCCN)c(C(F)(F)F)c1 [Compound 191] | 0.75 (≈ 0.826 µM) | 0.62 | 0.031 (≈ 0.0341 µM) | 0.016 (≈ 0.0176 µM) | – | – |
| CCCCCCCCc1ccc(C(=O)N[C@@H](CCCN)C(=O)N(C)[C@@H]2C(=O)N[C@@H](C)C(=O)N[C@H](C(=O)NCC#N)Cc3ccc(OCCCN)c(c3)-c3cc2ccc3OCCCN)cc1 [Compound 457] | 0.25 (≈ 0.279 µM) | 0.64 | 0.047 (≈ 0.0524 µM) | 0.0078 (≈ 0.0087 µM) | – | – |
| Cc1cc(-c2ccc(C(F)(F)F)cc2)ccc1C(=O)N[C@@H](CCN)C(=O)N(C)[C@@H]1C(=O)N[C@@H](C)C(=O)N[C@H](C(=O)NCC#N)Cc2ccc(OCCN)c(c2)-c2cc1ccc2OCCN [Compound 143] | 0.44 (≈ 0.489 µM) | 0.57 | 0.047 (≈ 0.0522 µM) | 0.018 (≈ 0.02 µM) | – | – |
| CCCCCCCCc1ccc(C(=O)N[C@@H](C)C(=O)N(C)[C@@H]2C(=O)N[C@@H](C)C(=O)N[C@H](C(=O)NCC#N)Cc3ccc(OCCN)c(c3)-c3cc2ccc3OCCN)c(C)c1 [Compound 243] | 1.5 (≈ 1.79 µM) | 1.3 | 0.094 (≈ 0.112 µM) | 0.031 (≈ 0.0369 µM) | – | – |
| CCCC#Cc1ccc(C(=O)N[C@@H](CCN)C(=O)N(C)[C@@H]2C(=O)N[C@@H](C)C(=O)N[C@H](C(=O)NCC#N)Cc3ccc(OCCN)c(c3)-c3cc2ccc3OCCN)c(C)c1 [Compound 307] | 0.88 (≈ 1.07 µM) | 3.5 | 0.25 (≈ 0.304 µM) | 0.031 (≈ 0.0377 µM) | – | – |
| CCCCCCCCc1cnc(C(=O)N[C@@H](CCN)C(=O)N(C)[C@@H]2C(=O)N[C@@H](C)C(=O)N[C@H](C(=O)NCC#N)Cc3ccc(OCCN)c(c3)-c3cc2ccc3OCCN)c(C)c1 [Compound 187] | 2 (≈ 2.3 µM) | 0.74 | 0.063 (≈ 0.0725 µM) | 0.047 (≈ 0.0541 µM) | – | – |
| C[C@@H]1NC(=O)[C@@H](N(C)C(=O)[C@H](CCCCN)NC(=O)c2ccc(-c3ccc(Cl)cc3)cc2)c2ccc(OCCN)c(c2)-c2cc(ccc2OCCN)C[C@@H](C(=O)N[C@@H](C)C#N)NC1=O [Compound 483] | – | 6.8 | – | 0.5 (≈ 0.559 µM) | 48 (≈ 53.7 µM) | 2 (≈ 2.24 µM) |
| CCCCCCCc1ccc(C(=O)N[C@@H](CCN)C(=O)N(C)[C@@H]2C(=O)N[C@@H](C)C(=O)N[C@H](C(=O)NCC#N)Cc3ccc(OCCN)c(c3)-c3cc2ccc3OCCN)c(C)c1 [Compound 198] | 0.24 (≈ 0.281 µM) | 0.72 | 0.063 (≈ 0.0738 µM) | 0.018 (≈ 0.0211 µM) | – | – |
| CCCCCCCCS(=O)(=O)N[C@@H](CO)C(=O)N(C)[C@@H]1C(=O)N[C@@H](C)C(=O)N[C@H](C(=O)NCC#N)Cc2ccc(OCCN)c(c2)-c2cc1ccc2OCCN [Compound 345] | – | 2.2 | – | 2 (≈ 2.5 µM) | > 64 | 0.5 (≈ 0.624 µM) |
| CCCCCCCCCCCCCC(=O)N[C@@H](CCN)C(=O)N(C)[C@@H]1C(=O)N[C@@H](C)C(=O)N[C@H](C(=O)NCC#N)Cc2ccc(OCCC)c(c2)-c2cc1ccc2OCCN [Compound 323] | 1.5 (≈ 1.77 µM) | 2.8 | 0.75 (≈ 0.885 µM) | 0.094 (≈ 0.111 µM) | – | – |
| CCCCc1ccc(C#CC(=O)N[C@@H](CCN)C(=O)N(C)[C@@H]2C(=O)N[C@@H](C)C(=O)N[C@H](C(=O)NCC#N)Cc3ccc(OCCN)c(c3)-c3cc2ccc3OCCN)cc1 [Compound 124] | 2 (≈ 2.43 µM) | 1.6 | 0.13 (≈ 0.158 µM) | 0.031 (≈ 0.0377 µM) | – | – |
| CCCCCCCCCCCCCC(=O)N[C@@H](CCN)C(=O)N(C)[C@@H]1C(=O)N[C@@H](C)C(=O)N[C@H](C(=O)NCC#N)Cc2ccc(OCCO)c(c2)-c2cc1ccc2OCCN [Compound 325] | 0.5 (≈ 0.589 µM) | 0.77 | 0.13 (≈ 0.153 µM) | < 0.0039 | – | – |
| CCCCc1ccc(-c2ccc(C(=O)N[C@@H](CCCN)C(=O)N(C)[C@@H]3C(=O)N[C@@H](C)C(=O)N[C@H](C(=O)NCC#N)Cc4ccc(OCCN)c(c4)-c4cc3ccc4OCCN)c(C)c2)cc1 [Compound 142] | 0.16 (≈ 0.177 µM) | 0.72 | 0.039 (≈ 0.0432 µM) | 0.042 (≈ 0.0466 µM) | – | – |
| CCCCCCCCCCCCCC(=O)N1C[C@@H](N)CC1C(=O)N(C)[C@@H]1C(=O)N[C@@H](C)C(=O)N[C@H](C(=O)NCC#N)Cc2ccc(OCCN)c(c2)-c2cc1ccc2OCCN (stereo partly shown) [Compound 481] | 0.25 (≈ 0.291 µM) | 1.2 | 0.047 (≈ 0.0546 µM) | 0.0078 (≈ 0.00907 µM) | – | – |
| CCCCCCCCCCCC(=O)N[C@@H](CCN)C(=O)N(C)[C@@H]1C(=O)N[C@@H](C)C(=O)N[C@H](C(=O)NCC#N)Cc2ccc(OCCN)c(c2)-c2cc1ccc2OCCN [Compound 103] | 1 (≈ 1.22 µM) | 0.57 | 0.023 (≈ 0.028 µM) | 0.0078 (≈ 0.00951 µM) | – | – |
| CCCCCCCCc1ccc(C(=O)N[C@@H](CCN)C(=O)N(C)[C@@H]2C(=O)N[C@@H](C)C(=O)N[C@H](C(=O)NCC#N)Cc3ccc(OCCN)c(c3)-c3cc2ccc3OCCN)c(N)c1 [Compound 223] | 0.25 (≈ 0.288 µM) | 1.5 | 0.031 (≈ 0.0357 µM) | 0.016 (≈ 0.0184 µM) | – | – |
| CCCCCCCS(=O)(=O)c1ccc(C(=O)N[C@@H](CCN)C(=O)N(C)[C@@H]2C(=O)N[C@@H](C)C(=O)N[C@H](C(=O)NCC#N)Cc3ccc(OCCN)c(c3)-c3cc2ccc3OCCN)c(C)c1 [Compound 390] | 3 (≈ 3.27 µM) | 1.1 | 0.13 (≈ 0.142 µM) | 0.031 (≈ 0.0338 µM) | – | – |

From patent publication US20180327367A1, “MACROCYCLIC BROAD SPECTRUM ANTIBIOTICS” (priority 2015, published 2018)
